This is an account of results in patent US20190225650A1, “PEPTIDOMIMETIC MACROCYCLES AND USE THEREOF IN REGULATING HIF1ALPHA” (AILERON THERAPEUTICS, INC., priority 2013, published 2019).

Assay [1] has as its system HRE-bla ME-180 cells. Briefly: Reporter gene assay (HRE-bla ME-180 HIF reporter, GeneBLAzer). The following applies: for EC50: 24 hour normoxia. In kind it is cell-based, human. The method in brief: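 A FRET β-lactamase readout of HIF transcription was used. After compound treatment in 0.3% DMSO/media under normoxic conditions, 20 μl of 6× LiveBLAzer-FRET B/G (CCF4-AM) substrate was added. Plates sat 3 hr at room temperature in the dark and were read at 409 Ex/460Em and 409Ex/530Em on a Synergy 2. Inhibition was compared against DMSO vehicle controls, with chetomin as positive control.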
On the technique in general: A reporter such as luciferase makes a cellular process visible.

Assay [2] concerns HRE-bla ME-180 cells. In words: Cell proliferation assay (viability, MTT, 1% FBS). Type of assay: cell-based, human. An outline of the steps: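 Viable cell number was measured with the CellTiter 96 (MTT) kit after compounds were applied for a 16 h normoxic (21% O2) pretreatment, followed by further normoxic or hypoxic (1% O2) culture. Cells: 2×10^4 ME-180 per well, Opti-MEM + 1% FBS, 0.5% DMSO vehicle.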

The target in assay [3] is T1, flag-tagged HIF1α (AA 786-826) / His6-tagged p300 (AA 323-423) complex (Homo sapiens, UniProt Q09472).
T1 construct: His6-tagged p300 (AA 323-423); made in house; host or cells: E. coli (pETDuet vector)
In words: HIF1α p300 displacement assay (TR FRET, +CHAPS). Conditions: read-out: IC50 (nM) (HIF1α_p300 Displacement + CHAPS). In kind it is binding. An outline of the steps: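 In this TR-FRET displacement format, peptides compete HIF1α C-terminal transactivation domain off p300-CH. They were preincubated 1 h at room temperature with 300 nM complex in HEPES pH 7.4/NaCl buffer with 7.5 mM CHAPS and 1 mM DTT. Anti-His-D2 (4 nM) and anti-Flag-K (0.5 μM) followed for 2 h, and a one-site fit of the fluorescence ratio gave IC50.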
For orientation: Time-resolved FRET reads energy transfer from a long-lived donor to a nearby acceptor.

Molecules are shown by their SMILES. Bridge positions count the residues as written; N and C are the ends. Square brackets hold non-standard residues; d marks the D form. Peptide text beside a SMILES is read from it. R8 = C=CCCCCCC[C@@](C)(N)C(=O)O; S5 = C=CCCC[C@](C)(N)C(=O)O; Nle = CCCC[C@H](N)C(=O)O

One may read the EC50 as the concentration giving half of the maximal effect. One may read the IC50 as the concentration at which inhibition is half-maximal. As to `CCCC[C@H](NC(=O)[C@H](CC(C)C)NC(=O)[C@@H](NC(=O)[C@H](CCC(=O)O)NC(=O)[C@H](CCC(=O)O)NC(=O)[C@H](CC(=O)O)NC(=O)[C@@H](NC(=O)[C@H](CC(N)=O)NC(=O)[C@@H](NC(=O)[C@]1(C)CCCC=CCCCCCC[C@@](C)(NC(=O)[C@H](CCC(=O)O)NC(=O)CNC(=O)[C@H](CCC(N)=O)NC(=O)[C@H](CC(C)C)NC(=O)[C@H](CC(C)C)NC(C)=O)C(=O)N[C@@H](CC(C)C)C(=O)N[C@@H](CC(C)C)C(=O)N[C@@H](CCCNC(=N)N)C(=O)N[C@@H](C)C(=O)N[C@@H](CC(C)C)C(=O)N[C@@H](CC(=O)O)C(=O)N1)C(C)C)[C@@H](C)CC)C(C)C)C(=O)N[C@@]1(C)CCCC=CCCC[C@@](C)(C(=O)N[C@@H](CCCC)C(=O)NCC(N)=O)NC(=O)[C@H]([C@@H](C)CC)NC(=O)[C@H](C(C)C)NC(=O)[C@H](CC(C)C)NC1=O` [SP-309] (Ac-LLQGE[R8]LLRALD[S5]VNIDEEVL[Nle][S5]LVI[S5][Nle]G-NH2; staple 6-13, 23-27), in the assay on HRE-bla ME-180 cells [1], the “18 h Avg % max inhibition at top conc (HIF Rptr-24 hrs normoxia) (μM)” value (from here on “18 h Avg % max inhibition at top conc”) is “+ (<10: +)” and the EC50 was > 30 µM. Besides, in the assay on HRE-bla ME-180 cells [2], the “Viability 1% FBS AVG (MTT V3-24 hr Normoxia) (μM)” value (“Viability 1% FBS AVG” below) is recorded as “++++ (≥30: ++++)”. The IC50 in assay [3] was in the range of 200 to 400 nM.
In the case of `CCCC[C@@H]1NC(=O)[C@H](CC(C)C)NC(=O)[C@](C)(NC(=O)[C@H](CCC(=O)O)NC(=O)[C@H](CCC(=O)O)NC(=O)[C@H](CC(=O)O)NC(=O)[C@@H](NC(=O)[C@H](Cc2ccccc2)NC(C)=O)[C@@H](C)CC)CCCCCCC=CCCC[C@@](C)(C(=O)N[C@@H](CCCC)C(=O)N[C@@H](C)C(=O)N[C@@H](CC(C)C)C(=O)N[C@@H](CC(=O)O)C(=O)N[C@@H](CCCNC(=N)N)C(=O)N[C@H](C(N)=O)[C@@H](C)CC)NC(=O)[C@H]([C@@H](C)CC)NC(=O)[C@H](C(C)C)NC(=O)[C@H](CC(C)C)NC(=O)[C@H](CO)NC1=O` [SP-200] (Ac-FIDEE[R8]L[Nle]SLVI[S5][Nle]ALDRI-NH2; staple 6-13), in the assay with HRE-bla ME-180 cells [1], the “18 h Avg % max inhibition at top conc” value was “++++ (≥50: ++++)” and the EC50 is > 30 µM. Also, in the assay on HRE-bla ME-180 cells [2], the “Viability 1% FBS AVG” value is “++++ (≥30: ++++)”. For the same compound, in assay [3], the IC50 is ≤ 200 nM.
On to `CC[C@H](C)[C@H](NC(=O)[C@H](Cc1ccccc1)NC(C)=O)C(=O)N[C@@H](CC(=O)O)C(=O)N[C@@H](CCC(=O)O)C(=O)N[C@@H](CC(N)=O)C(=O)N[C@H](C(=O)N[C@@H](CC(C)C)C(=O)N[C@@H](CCSC)C(=O)N[C@@]1(C)CCCC=CCCC[C@@](C)(C(=O)N[C@@H](CCSC)C(=O)N[C@@H](C)C(=O)N[C@@H](CC(C)C)C(N)=O)NC(=O)[C@H]([C@@H](C)CC)NC(=O)[C@H](C(C)C)NC(=O)[C@H](CC(C)C)NC1=O)C(C)C` [SP-235] (Ac-FIDENVLM[S5]LVI[S5]MAL-NH2; staple 9-13), for which, in the assay with HRE-bla ME-180 cells [1], the “18 h Avg % max inhibition at top conc” value is listed as “+++ (≤25 but <50: +++)” and the concentration for a half-maximal effect (EC50) was in the range of 15 to 30 µM. The “Viability 1% FBS AVG” value in the assay on HRE-bla ME-180 cells [2] was “++++ (≥30: ++++)”. The IC50 in assay [3] was > 700 nM.
For `CCCC[C@H](NC(=O)[C@H](CCC(=O)O)NC(=O)[C@]1(C)CCCC=CCCCCCC[C@@](C)(NC(=O)[C@H](CCC(=O)O)NC(=O)[C@H](C)NC(=O)[C@@H](NC(=O)[C@H](CC(N)=O)NC(=O)[C@@H](NC(=O)[C@H](CCC(N)=O)NC(=O)[C@]2(C)CCCC=CCCC[C@](C)(NC(=O)[C@H](CC(C)C)NC(=O)[C@H](CCC(=O)O)NC(=O)[C@H](CCC(=O)O)NC(=O)CNC(=O)[C@H](CCC(N)=O)NC(=O)[C@H](CC(C)C)NC(=O)[C@H](CC(C)C)NC(C)=O)C(=O)N[C@@H](CCCNC(=N)N)C(=O)N[C@@H](C)C(=O)N[C@@H](CC(C)C)C(=O)N2)C(C)C)[C@@H](C)CC)C(=O)N[C@@H](C(C)C)C(=O)N[C@@H](CC(C)C)C(=O)N[C@@H](CCCC)C(=O)N[C@@H](CO)C(=O)N[C@@H](CC(C)C)C(=O)N[C@@H](C(C)C)C(=O)N1)C(N)=O` [SP-365] (Ac-LLQGEEL[S5]RAL[S5]QVNIAE[R8]VL[Nle]SLV[S5]E[Nle]-NH2; staple 8-12, 19-26), in the assay on HRE-bla ME-180 cells [1], the “18 h Avg % max inhibition at top conc” value was “+++ (≤25 but <50: +++)” and the EC50 is > 30 µM. Moreover, the “Viability 1% FBS AVG” value in the assay with HRE-bla ME-180 cells [2] is on record as “++++ (≥30: ++++)”. The IC50 in assay [3] was > 700 nM.
For `CCCC[C@H](NC(=O)[C@H](Cc1ccccc1)NC(=O)[C@@H](NC(=O)[C@H](CCC(=O)O)NC(=O)[C@H](CCC(=O)O)NC(=O)[C@H](CC(=O)O)NC(=O)[C@@H](NC(=O)[C@H](Cc1ccccc1)NC(C)=O)[C@@H](C)CC)C(C)C)C(=O)N[C@@]1(C)CCCC=CCCC[C@@](C)(C(=O)N[C@@H](C)C(=O)N[C@@H](C)C(=O)N[C@@H](CC(C)C)C(=O)N[C@@H](CC(C)C)C(N)=O)NC(=O)[C@H]([C@@H](C)CC)NC(=O)[C@H](C(C)C)NC(=O)[C@H](CC(C)C)NC1=O` [SP-247] (Ac-FIDEEVF[Nle][S5]LVI[S5]AALL-NH2; staple 9-13) the same measures were “+++ (≤25 but <50: +++)”, 15 to 30 µM, “++++ (≥30: ++++)” and 400 to 700 nM.
For `CCCC[C@H](NC(=O)[C@H](CCC(=O)O)NC(=O)[C@@H](NC(=O)[C@@H](NC(=O)[C@H](CC(C)C)NC(=O)[C@]1(C)CCCC=CCCC[C@](C)(NC(=O)[C@H](CCCNC(=N)N)NC(=O)[C@H](CC(=O)O)NC(=O)[C@@H](NC(=O)[C@H](Cc2ccccc2)NC(C)=O)[C@@H](C)CC)C(=O)N[C@@H](C(C)C)C(=O)N[C@@H](CC(C)C)C(=O)N[C@@H](CCCC)C(=O)N1)C(C)C)[C@@H](C)CC)C(=O)N[C@@H](C)C(=O)N[C@@H](CC(C)C)C(N)=O` [SP-156] (Ac-FIDR[S5]VL[Nle][S5]LVIE[Nle]AL-NH2; staple 5-9) the same measures were “++ (≤10 but <25: ++)”, > 30 µM, “++++ (≥30: ++++)” and 200 to 400 nM.
`CCCC[C@@H]1NC(=O)[C@H](CC(C)C)NC(=O)[C@H](C(C)C)NC(=O)[C@@](C)(NC(=O)[C@H](CCC(=O)O)NC(=O)[C@H](CC(=O)O)NC(=O)[C@@H](NC(=O)[C@H](Cc2ccccc2)NC(C)=O)[C@@H](C)CC)CCCC=CCCCC2(CCCC=CCCC[C@](C)(C(=O)N[C@@H](CCCC)C(=O)N[C@@H](C)C(=O)N[C@@H](CC(C)C)C(N)=O)NC(=O)[C@H]([C@@H](C)CC)NC(=O)[C@H](C(C)C)NC(=O)[C@H](CC(N)=O)NC2=O)NC1=O` (some centres unmarked) [SP-210]: in the assay on HRE-bla ME-180 cells [1], the “18 h Avg % max inhibition at top conc” value was “++++ (≥50: ++++)” and the EC50 lay within 5 to 15 µM. Further, the “Viability 1% FBS AVG” value in the assay with HRE-bla ME-180 cells [2] is on record as “+ (<5: +)”. Also, the IC50 in assay [3] was in the range of 200 to 400 nM.
For `CCCC[C@H](NC(=O)[C@H](C)NC(=O)[C@]1(C)CCCC=CCCCCCC[C@@](C)(NC(=O)[C@H](CCC(=O)O)NC(=O)[C@H](CC(=O)O)NC(=O)[C@@H](NC(=O)[C@H](Cc2ccccc2)NC(C)=O)[C@@H](C)CC)C(=O)N[C@@H](C(C)C)C(=O)N[C@@H](CC(C)C)C(=O)N[C@@H](CCCC)C(=O)N[C@@H](CO)C(=O)N[C@@H](CC(C)C)C(=O)N[C@@H](C(C)C)C(=O)N1)C(=O)N[C@@H](C)C(=O)N[C@@H](CC(C)C)C(=O)N[C@@H](CC(=O)O)C(=O)N[C@@H](C)C(=O)N[C@H](C(N)=O)[C@@H](C)CC` [SP-191] (Ac-FIDE[R8]VL[Nle]SLV[S5]A[Nle]ALDAI-NH2; staple 5-12) the same measures were “++ (≤10 but <25: ++)”, > 30 µM, “++++ (≥30: ++++)” and 200 to 400 nM.
